From ChEMBL document CHEMBL4130361, “Synthesis, molecular modeling studies and bronchodilation properties of nicotinonitrile containing-compounds” (Eur J Med Chem, 2017)

The compounds below were run on Trachea (assay: Potency index, ratio of theophylline IC50 to test compound IC50 for reduction in histamine-induced contractions in guinea pig tracheal rings). Conditions: not given.
Type: functional, Cavia porcellus

| Compound | Ratio IC50 |
| --- | --- |
| COc1nc(-c2ccccc2)cc(-c2ccc(Cl)cc2Cl)c1C#N | 2 |

Each compound was assayed on Trachea (assay: Induction of bronchodilation in guinea pig tracheal rings assessed as reduction in histamine-induced contractions). Conditions: Cavia porcellus.
Type: functional, tissue-based

| Compound | IC50 [µM] |
| --- | --- |
| COc1nc(-c2ccncc2)cc(-c2ccc(Cl)cc2Cl)c1C#N | 11.8 |
| N#Cc1c(-c2ccc(Cl)cc2Cl)cc(-c2ccc(Cl)cc2)nc1N1CCOCC1 | 6.71 |
| CCOc1nc(-c2cccs2)cc(-c2ccc(Cl)cc2Cl)c1C#N | 8.71 |
| COc1nc(-c2ccccc2)cc(-c2ccc(Cl)cc2Cl)c1C#N | 5.34 |
| CCOc1nc2c(c(-c3ccc(Cl)cc3Cl)c1C#N)-c1ccccc1CC2 | 7.07 |
| COc1nc(-c2ccc(Br)cc2)cc(-c2ccc(Cl)cc2Cl)c1C#N | 8.02 |
| COc1ccc(-c2cc(-c3ccc(Cl)cc3Cl)c(C#N)c(OC)n2)cc1 | 9.89 |
| COc1nc2c(c(-c3ccc(Cl)cc3Cl)c1C#N)CSc1ccccc1-2 | 11 |
| N#Cc1c(-c2ccc(Cl)cc2Cl)cc(-c2ccc(Cl)cc2)nc1Br | 9.14 |
| COc1cc2c(cc1OC)-c1nc(OC)c(C#N)c(-c3ccc(Cl)cc3Cl)c1C2 | 6.8 |
| COc1nc(-c2cccs2)cc(-c2ccc(Cl)cc2Cl)c1C#N | 3.28 |
| COc1nc2c(c(-c3ccc(Cl)cc3Cl)c1C#N)-c1ccccc1C2 | 9.11 |
| CN1CCN(c2nc(-c3ccc(Cl)cc3)cc(-c3ccc(Cl)cc3Cl)c2C#N)CC1 | 13 |
| COc1nc2c(c(-c3ccc(Cl)cc3Cl)c1C#N)CCCc1ccccc1-2 | 10 |
| COc1nc(-c2ccc3ccccc3c2)cc(-c2ccc(Cl)cc2Cl)c1C#N | 9.4 |
| CCOc1nc(-c2ccc(F)cc2)cc(-c2ccc(Cl)cc2Cl)c1C#N | 8.02 |
| COc1nc(-c2ccc(Cl)cc2)cc(-c2ccc(Cl)cc2Cl)c1C#N | 7.55 |
| COc1nc(-c2ccc(C)cc2)cc(-c2ccc(Cl)cc2Cl)c1C#N | 10.6 |
| CCN1CCN(c2nc(-c3ccc(Cl)cc3)cc(-c3ccc(Cl)cc3Cl)c2C#N)CC1 | 15.8 |
| N#Cc1c(-c2ccc(Cl)cc2Cl)cc(-c2ccc(Cl)cc2)nc1N1CCCCC1 | 7.83 |
| COc1nc2c(c(-c3ccc(Cl)cc3Cl)c1C#N)-c1ccccc1CC2 | 6.36 |
| CCOc1nc(-c2ccc(Br)cc2)cc(-c2ccc(Cl)cc2Cl)c1C#N | 12.4 |
| COc1nc(-c2cccnc2)cc(-c2ccc(Cl)cc2Cl)c1C#N | 17.1 |
| COc1ccc(-c2cc(-c3ccc(Cl)cc3Cl)c(C#N)c(OC)n2)cc1OC | 7.91 |
| CCOc1nc2c(c(-c3ccc(Cl)cc3Cl)c1C#N)-c1ccccc1C2 | 11 |
| CCOc1nc2c(c(-c3ccc(Cl)cc3Cl)c1C#N)CCCc1ccccc1-2 | 13 |
| COc1nc(-c2ccc(F)cc2)cc(-c2ccc(Cl)cc2Cl)c1C#N | 7.43 |
| COc1nc2c(c(-c3ccc(Cl)cc3Cl)c1C#N)COc1ccccc1-2 | 6.11 |
| CCOc1nc(-c2ccc(Cl)cc2)cc(-c2ccc(Cl)cc2Cl)c1C#N | 9.38 |
| Cn1c(=O)c2nc[nH]c2n(C)c1=O [THEOPHYLLINE] | 11.6 |
